Experimental data published in patent publication US20100190716A1, “USE OF A PLATELET FIBRINOGEN RECEPTOR HEXAPEPTIDE ANTAGONIST AND ALPHA-ENDORPHIN AS THERAPEUTIC AGENTS” (priority 2007, published 2010).
Where no end group is shown, it is not given here. [ ]: non-standard residue; d: D form. Hyp = O=C(O)[C@@H]1C[C@@H](O)CN1

How the values were obtained:
HIV-1IIIB = assay: HIV-1 antiviral assay in CEM-SS cells (MTS readout); conditions: positive controls
HCMV strain AD169 = assay: HCMV plaque formation assay in MRC-5 cells; conditions: for inhibition of HCMV plaque formation compared to virus control: 10 micrograms per ml, 7-10 days
Interferon-γ (IFN-γ) = assay: Th1/Th2 cytokine profiling assay, IFN-γ; assay type: cell-based, mouse; conditions: 10 micrograms per ml; Ovalbumin-restimulated Balb/c spleen cells, 72 hours
From the text: (§1) The Balb/c mice (originated in 1923, it is a popular strain and is used in many different research disciplines. Also classified as an inbred from the production of 20 or more successive brother-sister matings, the Balb/c mouse is albino and small in size) were immunized on Days 1, 15, and 29 with Ovalbumin (Ovalbumin is the main protein found in egg white, commonly used to stimulate an immunological reaction in test animals) in PBS (5 micrograms/injection). On day 50, spleens of the mice were harvested (3 weeks after last boost with Ovalbumin). […] Thereafter, additional Ovalbumin was added to the cells at 10 micrograms/ml for in vitro restimulation of the cells. 72 hours later, cell supernatants were harvested and assayed using the Becton Dickinson Mouse Th1/Th2 Cytokine CBA Kit. This kit can be used to measure Interleukin-2 (IL-2), Interleukin-4 (IL-4), Interleukin-5 (IL-5), Interferon-γ (IFN-γ), and Tumor Necrosis Factor-α (TNF-α) protein levels in a single sample. The kit performance has been optimized for analysis of physiologically relevant concentrations ([…] levels) of specific cytokine proteins in tissue culture supernatants and serum samples.

[1] = tested on: Tumor Necrosis Factor-α (TNF-α); assay: Th1/Th2 cytokine profiling assay, TNF-α; assay type: cell-based, mouse; conditions: 10 micrograms per ml; Ovalbumin-restimulated Balb/c spleen cells, 72 hours
From the text: as §1

[2] = tested on: Primary Human endothelial cells (HUVEC); assay: Endothelial cell migration assay; assay type: cell-based; conditions: 10 micrograms per ml, 22 hours
Method: Endothelial cell migration is a prerequisite for the process of neo-vascularization or angiogenesis which is crucial for on-site recruitment of blood vessel formation. Primary Human endothelial cells (HUVEC) were seeded in insert chambers with 3 micrometer pore size of multi-transwell plate for 6 hours at 37° C. in Endothelial Cell Basal Medium (EBM) supplemented with 0.1% bovine serum albumin. Thereafter, designated concentration of testing peptides—10 micrograms per ml—was added in duplicate wells. The endothelia were allowed to migrate for 22 hours at 37° C., then, migrated cells were fixed and stained with Hoechst 33342 dye. Images of 3 fields per insert were taken and the number of migrated cells per field were quantified using the ImageProPlus software. Data were analyzed for the average number of the migrated cells and standard deviation of six data points for each treatment condition. Active test peptides against HUVEC migration was determined based on 50% inhibition of migrated cells as compared with the control. Statistic p values were computed using the Student's t-test.

Interleukin-2 (IL-2) = assay: Th1/Th2 cytokine profiling assay, IL-2; assay type: cell-based, mouse; conditions: 10 micrograms per ml; Ovalbumin-restimulated Balb/c spleen cells, 72 hours
From the text: as §1

[3] = tested on: Human Peripheral Blood Mononuclear Cells (PBMC), B cell proliferation; assay: B cell proliferation assay (SAC plus Interleukin-2 stimulated PBMC, 3H-thymidine); assay type: cell-based; conditions: 10 micrograms per ml; SAC plus IL-2 stimulated PBMC
Method: Human Peripheral Blood Mononuclear Cells (PBMC) were obtained from normal human donors. The B cell proliferation was induced by stimulation of the cells with the B cell mitogen Staphylococcus aureus Cowans I (SAC) plus Interleukin-2, either in the absence (positive proliferation control), or in the presence of test peptides—10 micrograms per ml—to examine their effects on the B cell response. 10^5/well PBMC were plated in 96-well microtiter plates and assayed in duplicate with the peptides. Cell cultures were incubated at 37° C. for 3 days in a 5% CO2 incubator and were thereafter pulsed with 1 microCi/well ^3H-thymidine for additional 12 hours of culture. At the end of incubation time, the plates were harvested and the cells counted by liquid scintillation for the incorporation of ^3H-thymidine as a measure of B cell proliferation.

HUVEC = assay: Endothelial tube formation assay; assay type: cell-based, human; conditions: 10 micrograms per ml, 20 hours
Method: The endothelial tube formation assay is based on the ability of endothelial cells to form three-dimensional capillary-like tubular structures when cultured on a gel of basement membrane extract. The endothelial tube formation assay represents a powerful model for studying inhibition and induction of angiogenesis. Pre-labeled HUVEC with Calcein AM were seeded in a 96-well culture plate coated with extracellular metrix (Chemicon international Cat. ECM625) and treated with test peptides—10 micrograms per ml—in full growth medium. Positive control was vehicle only. The endothelial cells were allowed to form tubes foe 20 hours and were then examined under an inverted fluorescent microscope. Duplicate wells for each treatment were photographed and quantitatively analyzed for an average tubule length using image analysis software ImageProPlus. Raw data were expressed as average tubule lengths in pixels ±standard deviation. Statistic p values were computed using the Student's t-test.

[4] = tested on: hepatitis B virus (HBV) ayw strain; assay: HBV experimental assay system, secreted HBV DNA by TaqMan PCR in HepG2-2.2.15; assay type: cell-based; conditions: 10 micrograms per ml, HepG2-2.2.15, 6 days
Interleukin-5 (IL-5) = assay: Th1/Th2 cytokine profiling assay, IL-5; assay type: cell-based, mouse; conditions: 10 micrograms per ml; Ovalbumin-restimulated Balb/c spleen cells, 72 hours
From the text: as §1

Interleukin-4 (IL-4) = assay: Th1/Th2 cytokine profiling assay, IL-4; assay type: cell-based, mouse; conditions: 10 micrograms per ml; Ovalbumin-restimulated Balb/c spleen cells, 72 hours
From the text: as §1

| Compound | antiviral activity of positive control compounds (HIV-1IIIB) | antiviral activity of positive control compound (HCMV strain AD169; positive control, HCMV AD169) | IFNγ spleen cells; TH1 response (% of control) (Interferon-γ (IFN-γ)) | TNF-a spleen cells; TH1 response (% of control) [1] | inhibition of the migration of human endothelial cells [2] [%] | inhibition of HCMV plaque formation compared to virus control (HCMV strain AD169) | IL-2 spleen cells (% of control) (Interleukin-2 (IL-2)) | decrease of the proliferation of specifically stimulated human B-cells [3] [%] | inhibition of the tube formation of human endothelial cells (HUVEC) | inhibition of HBV replication on tested liver cells [4] | IL-5 spleen cells; TH2 response (% of control) (Interleukin-5 (IL-5)) | IL-4 spleen cells; TH2 response (% of control) (Interleukin-4 (IL-4)) |
| --- | --- | --- | --- | --- | --- | --- | --- | --- | --- | --- | --- | --- |
| Cc1cn([C@H]2C[C@H](N=[N+]=[N-])[C@@H](CO)O2)c(=O)[nH]c1=O [AZT] | expected levels of antiviral activity |  |  |  |  |  |  |  |  |  |  |  |
| Nc1nc(O)c2ncn(COC(CO)CO)c2n1 [Ganciclovir, reference compound] |  | expected levels of antiviral activity |  |  |  |  |  |  |  |  |  |  |
| CC(C)(C)NC(=O)[C@@H]1CN(Cc2cccnc2)CCN1C[C@@H](O)C[C@@H](Cc1ccccc1)C(=O)N[C@H]1c2ccccc2C[C@H]1O [indinavir] | expected levels of antiviral activity |  |  |  |  |  |  |  |  |  |  |  |
| PS[Hyp]GDW-OH [peptide 1] |  |  | 63.7 % of control | 96.0 % of control | 39 | did not inhibit | 117.9 % of control | 20.9 | did not inhibit | no effect | 65.5 % of control | 0.0 % of control |
| Tyr-Gly-Gly-Phe-Met-Thr-Ser-Glu-Lys-Ser-Gln-Thr-Pro-Leu-Val-Thr-OH (YGGFMTSEKSQTPLVT-OH) [peptide 2, Alpha-Endorphin] |  |  | 68.6 % of control | 93.1 % of control | 31 | did not inhibit | 0.0 % of control | 12.0 | did not inhibit | no effect | 53.0 % of control | 0.0 % of control |
